Common to all, as to assay: Method 1: intracellular Ca2+ release (FLIPR, Calcium 5) in recombinant CHO-K1 cells
Assay type in all cases: cell-based

One assay has as its target T1, human S1PR5 receptor (Homo sapiens, UniProt Q9H228).
T1 construct: host or cells: CHO-K1
Conditions: agonist potency, determined with method 1 (symbols A-D); read-out: S1P5 EC50 range. The method, boiled down:
(§1)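 Cells expressing the receptor with promiscuous Gq/i5 are dye-loaded, equilibrated at room temperature and challenged with test compound while fluorescence is recorded by FLIPR. Potency is derived by nonlinear fitting after normalization to phospho-fingolimod.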

The target of the next assay is T2, human S1PR1 receptor (Homo sapiens, UniProt P21453).
T2 construct: host or cells: CHO-K1
The note with it: (1): determined with method 1; read-out: S1P1 EC50. An outline of the steps: as §1

In another assay the target is T3, human S1PR3 receptor (Homo sapiens, UniProt Q99500).
T3 construct: host or cells: CHO-K1
The note with it: (1): determined with method 1; read-out: S1P3 EC50. The method, boiled down:
as §1

The next assay deals with T4, human S1PR4 receptor (Homo sapiens, UniProt O95977).
T4 construct: host or cells: CHO-K1
T4 sequence (O95977 1-384): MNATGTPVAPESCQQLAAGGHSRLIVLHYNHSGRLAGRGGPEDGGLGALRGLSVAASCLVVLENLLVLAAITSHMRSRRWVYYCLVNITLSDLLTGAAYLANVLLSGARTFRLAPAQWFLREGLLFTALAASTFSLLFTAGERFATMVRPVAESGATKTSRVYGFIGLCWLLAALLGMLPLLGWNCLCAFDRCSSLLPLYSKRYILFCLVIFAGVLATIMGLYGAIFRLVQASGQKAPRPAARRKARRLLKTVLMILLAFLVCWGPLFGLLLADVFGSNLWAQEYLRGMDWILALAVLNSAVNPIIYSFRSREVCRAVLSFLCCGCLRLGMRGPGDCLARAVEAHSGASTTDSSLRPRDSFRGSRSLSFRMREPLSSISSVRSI
Conditions: (1): determined with method 1; read-out: S1P4 EC50. An outline of the steps: as §1

Where only a bound is given, the exact number is not on record here.

This passage reports EC50 results from patent publication US10556907B2 (AbbVie Inc., priority 2015, dated 2020).

T1 sequence (Q9H228 whole entry): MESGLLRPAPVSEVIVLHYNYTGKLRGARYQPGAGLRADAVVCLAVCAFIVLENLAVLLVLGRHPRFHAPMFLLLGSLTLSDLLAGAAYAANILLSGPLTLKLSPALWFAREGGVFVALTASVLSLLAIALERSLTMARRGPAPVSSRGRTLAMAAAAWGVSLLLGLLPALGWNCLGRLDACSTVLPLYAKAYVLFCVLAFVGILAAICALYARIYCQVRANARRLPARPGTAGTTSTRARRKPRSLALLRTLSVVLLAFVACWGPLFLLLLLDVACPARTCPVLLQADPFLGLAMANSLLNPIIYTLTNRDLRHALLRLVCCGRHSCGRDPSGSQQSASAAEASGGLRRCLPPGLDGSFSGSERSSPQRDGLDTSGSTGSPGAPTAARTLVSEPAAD
T2 sequence (P21453 whole entry): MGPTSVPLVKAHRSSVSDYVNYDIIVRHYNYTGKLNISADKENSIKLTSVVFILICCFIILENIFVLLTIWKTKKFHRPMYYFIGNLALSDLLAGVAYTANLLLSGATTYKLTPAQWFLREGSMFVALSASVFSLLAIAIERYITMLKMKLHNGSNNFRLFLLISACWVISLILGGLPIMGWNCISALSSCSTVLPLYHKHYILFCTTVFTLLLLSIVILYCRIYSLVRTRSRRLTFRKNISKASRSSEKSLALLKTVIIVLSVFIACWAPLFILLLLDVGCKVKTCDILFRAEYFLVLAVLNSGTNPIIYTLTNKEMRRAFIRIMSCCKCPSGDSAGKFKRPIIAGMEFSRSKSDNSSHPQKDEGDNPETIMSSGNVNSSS
T3 sequence (Q99500 whole entry): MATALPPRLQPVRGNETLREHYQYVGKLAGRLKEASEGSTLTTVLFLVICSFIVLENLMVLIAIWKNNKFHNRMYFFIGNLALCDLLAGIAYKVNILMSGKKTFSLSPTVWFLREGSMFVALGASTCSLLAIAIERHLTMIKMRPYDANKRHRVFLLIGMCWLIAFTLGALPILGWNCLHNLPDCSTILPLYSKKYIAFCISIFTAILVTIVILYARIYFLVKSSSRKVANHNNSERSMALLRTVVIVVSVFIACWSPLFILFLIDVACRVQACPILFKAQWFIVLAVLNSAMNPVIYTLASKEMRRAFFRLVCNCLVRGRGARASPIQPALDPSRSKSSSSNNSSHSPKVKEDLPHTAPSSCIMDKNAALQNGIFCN

For the compound `C[C@@H](CC(=O)O)CN1CCc2nc(-c3ccc(C(F)(F)Cc4ccc(Cl)cc4)cc3)ncc2C1` (single isomer, unassigned) [Compound 266, 4-(2-(4-(2-(4-chlorophenyl)-1,1-difluoroethyl)phenyl)-7,8-dihydropyrido[4,3-d]pyrimidin-6(5H)-yl)-3-methylbutanoic acid], the EC50 (as a rule, the concentration at which the effect is half-maximal) on human S1PR5 receptor was 10 to 100 nM; at human S1PR1 receptor it was > 1000 nM; at human S1PR3 receptor, > 1000 nM; at human S1PR4 receptor, > 1000 nM.

Consider `CC(CC(=O)O)CN1CCc2nc(-c3ccc(C(F)(F)Cc4ccc(Cl)cc4F)cc3)ncc2C1` (stereo not shown) [Compound 277], for which the half-maximal effective concentration (EC50) on human S1PR5 receptor is 10 to 100 nM; at human S1PR1 receptor, > 1000 nM; at human S1PR3 receptor it was > 1000 nM; on human S1PR4 receptor, > 1000 nM.

Turning to `CC(C)c1ccc(C#Cc2ncc3c(n2)CCN(C2CC(C(=O)O)C2)C3)cc1` (stereo not shown) [Compound 58, 3-(2-((4-isopropylphenyl)ethynyl)-7,8-dihydropyrido[4,3-d]pyrimidin-6(5H)-yl)cyclobutanecarboxylic acid], the EC50 on human S1PR5 receptor was 1000 to 10000 nM; on human S1PR1 receptor, > 1000 nM; on human S1PR3 receptor, > 1000 nM; on human S1PR4 receptor, > 1000 nM.

Turning to `O=C(O)C1(CN2CCc3nc(-c4ccc(OCc5ccc(Cl)cc5)cc4)ncc3C2)CC1` [Compound 215, 1-((2-(4-((4-chlorobenzyl)oxy)phenyl)-7,8-dihydropyrido[4,3-d]pyrimidin-6(5H)-yl)methyl)cyclopropanecarboxylic acid], the EC50 on human S1PR5 receptor is 1000 to 10000 nM; at human S1PR1 receptor it was > 1000 nM; on human S1PR3 receptor it was > 1000 nM; on human S1PR4 receptor, > 1000 nM.

Take `CC(CC(=O)O)CN1CCc2nc(-c3ccc(OCc4ccc(C(F)(F)F)cc4)cc3)ncc2C1` (stereo not shown) [Compound 233, 3-methyl-4-(2-(4-((4-(trifluoromethyl)benzyl)oxy)phenyl)-7,8-dihydropyrido[4,3-d]pyrimidin-6(5H)-yl)butanoic acid]: the EC50 on human S1PR5 receptor is < 10 nM; at human S1PR1 receptor it was < 1000 nM; on human S1PR3 receptor it was > 1000 nM; on human S1PR4 receptor, < 1000 nM.

On to `O=C(O)CC1CC(N2CCc3nc(-c4ccc(OCc5cccc(Cl)c5)cc4)ncc3C2)C1` (stereo not shown) [Compound 3, 2-(3-(2-(4-((3-chlorobenzyl)oxy)phenyl)-7,8-dihydropyrido[4,3-d]pyrimidin-6(5H)-yl)cyclobutyl)acetic acid], for which the half-maximal effective concentration (EC50) at human S1PR5 receptor is 100 to 1000 nM; on human S1PR1 receptor it was > 1000 nM; on human S1PR3 receptor, > 1000 nM; at human S1PR4 receptor, > 1000 nM.

In the case of `CC(CCN1CCc2nc(-c3ccc(OCc4cccc(Cl)c4)cc3)c(F)cc2C1)C(=O)O` (stereo not shown) [Compound 182, 4-(2-(4-((3-chlorobenzyl)oxy)phenyl)-3-fluoro-7,8-dihydro-1,6-naphthyridin-6(5H)-yl)-2-methylbutanoic acid], the concentration giving a half-maximal response (EC50) at human S1PR5 receptor was < 10 nM; at human S1PR1 receptor it was > 1000 nM; on human S1PR3 receptor it was > 1000 nM; at human S1PR4 receptor, > 1000 nM.

In the case of `O=C(O)CCN1CCc2nc(-c3ccc(OCc4ccccc4C(F)F)cc3)ccc2C1` [Compound 165, 3-(2-(4-((2-difluoromethylbenzyl)oxy)phenyl)-7,8-dihydro-1,6-naphthyridin-6(5H)-yl)propanoic acid], the 50% effective concentration (EC50) is < 10 nM at human S1PR5 receptor, > 1000 nM at human S1PR1 receptor, > 1000 nM on human S1PR3 receptor and > 1000 nM on human S1PR4 receptor.

Regarding `O=C(O)C1CC(N2CCc3nc(C#Cc4ccc(OCc5ccccc5)cc4)ccc3C2)C1` (stereo not shown) [Compound 125, 3-(2-((4-(benzyloxy)phenyl)ethynyl)-7,8-dihydro-1,6-naphthyridin-6(5H)-yl)cyclobutanecarboxylic acid], the concentration for a half-maximal effect (EC50) was 100 to 1000 nM on human S1PR5 receptor, > 1000 nM on human S1PR1 receptor, > 1000 nM at human S1PR3 receptor and > 1000 nM at human S1PR4 receptor.

Take `O=C(O)C1(CN2CCc3nc(-c4ccc(Cc5ccccc5)cc4)ncc3C2)CC1` [Compound 218, 1-((2-(4-benzylphenyl)-7,8-dihydropyrido[4,3-d]pyrimidin-6(5H)-yl)methyl)cyclopropanecarboxylic acid]: the EC50 is 1000 to 10000 nM at human S1PR5 receptor, > 1000 nM on human S1PR1 receptor, > 1000 nM at human S1PR3 receptor and > 1000 nM at human S1PR4 receptor.
